# Results from EP0153803A2, “Triazole antifungal agents” (Pfizer Limited, priority 1984, dated 1985).
# Test system: Candida albicans
# Test: in vivo protection of mice inoculated with Candida albicans (PD50)
# Details: Candida albicans, 48 h, vs. Candida albicans in mice; dose giving 50% protection against lethal effect of the infection, 48 hours observation; route not given
# Description: The in vivo evaluation of the compounds can be carried out at a series of dose levels by intraperitoneal or intravenous injection or by oral administration, to mice which are inoculated with a strain of Candida albicans. Activity is based on the survival of a treated group of mice after the death of an untreated group of mice following 48 hours observation.- The dose level at which the compound provides 50% protection (PD50) against the lethal effect of the infection is noted. Using the test method described in the text, the following PD50 values were obtained vs. Candida albicans in mice:-
row,SMILES,ED50
1,"CC(C)(n1cncn1)C(O)(c1ccc(F)cc1)c1ccc(F)cc1 [Example 6, 1,1-Bis(4-fluorophenyl)-2-methyl-2-(1H-1,2,4-triazol-1-yl)propan-l-ol]",1.6 mg/kg
2,"CC(n1cncn1)C(O)(c1ccc(F)cc1)c1ccc(F)cc1F (single isomer, unassigned) [Example 2]",< 1 mg/kg
3,CC(C)(n1cncn1)C(O)(c1ccc(F)cc1)c1ccc(F)cc1F (racemic) [Example 5],2.2 mg/kg
4,"CC(F)(n1cncn1)C(O)(c1ccc(Cl)cc1)c1ccc(F)cc1F (stereo not drawn) [Example 1, 1-(4-Chlorophenyl)-1-(2,4-difluorophenyl)-2-fluoro-2-(1H-3,2,4-triazol-1-yl)propan-1-ol]",0.95 mg/kg
5,"OC(c1ccc(F)cc1)(c1ccc(F)cc1)C(F)n1cncn1 (stereo not drawn) [Example 8, 2-Fluoro-1,1-di-(4-fluorophenyl)-2-(1,2,4-triazol-1-yl)ethanol]",0.3 mg/kg
6,"OC(c1ccc(Cl)cc1)(c1ccc(Cl)cc1Cl)C(F)n1cncn1 (single isomer, unassigned) [Example 10]",3.2 mg/kg
7,OC(c1ccc(F)cc1F)(c1ccc(F)cc1F)C(F)n1cncn1 (racemic) [Example 11],< 1 mg/kg
8,CC(C)(n1cncn1)C(O)(c1ccc(Cl)cc1)c1ccc(F)cc1F (racemic) [Example 4],2.3 mg/kg
9,CC(C)(n1cncn1)C(O)(c1ccc(Cl)cc1)c1ccc(Cl)cc1 [Example 3],< 1 mg/kg
10,"OC(c1ccc(F)cc1)(c1ccc(Cl)cc1Cl)C(F)n1cncn1 (single isomer, unassigned) [Example 9 (diastereomer I)]",0.3 mg/kg

# Same assay, conditions: vs. Candida albicans in mice; dose giving 50% protection against lethal effect of the infection, 48 hours observation; route not given; 2880 min
row,SMILES,PD50
1,"OC(c1ccc(Cl)cc1)(c1ccc(F)cc1F)C(F)n1cncn1 (single isomer, unassigned) [Example 7 (diastereomer II), 1-(4-Chloroghenyl)-1-(2,4-difiuorophenyl)-2-fiuoro-2-(1H-1,2,4-triazol-l-yl)-ethanol]",0.3 mg/kg
2,"OC(c1ccc(F)cc1)(c1ccc(Cl)cc1Cl)C(F)n1cncn1 (single isomer, unassigned) [Example 9 (diastereomer II)]",0.5 mg/kg
3,"OC(c1ccc(F)cc1)(c1ccc(F)cc1)C(F)n1cncn1 (single isomer, unassigned) [Example 12(+)]",0.75 mg/kg
4,"OC(c1ccc(Cl)cc1)(c1ccc(F)cc1F)C(F)n1cncn1 (single isomer, unassigned) [Example 7 (diastereomer I), 1-(4-Chloroghenyl)-1-(2,4-difiuorophenyl)-2-fiuoro-2-(1H-1,2,4-triazol-l-yl)-ethanol]",1.6 mg/kg
5,"OC(c1ccc(F)cc1)(c1ccc(F)cc1)C(F)n1cncn1 (single isomer, unassigned) [Example 12(-)]",0.2 mg/kg
